Columns and labels:
FGFR1 (407-822) = biological target: T1, FGFR1 (407-822) (Homo sapiens, UniProt P11362); test: In vitro biochemical assay for FGFR1
T1 construct: FGFR1 (407-822)
Method: (§1) Liquid handling and incubation steps were done on an Innovadyne Nanodrop Express equipped with a robotic arm (Thermo CatX, Caliper Twister II) and an incubator (Liconic STX40, Thermo Cytomat 2C450). The assay plates were prepared by addition of 50 nI per well of compound solution in 90% DMSO. […] Kinase reactions were incubated at 30° C. for 60 minutes and subsequently terminated by addition of 16 μl per well of stop solution (100 mM HEPES pH 7.5, 5% DMSO, 0.1% Caliper coating reagent, 10 mM EDTA, and 0.015% Brij35). Plates with terminated kinase reactions were transferred to the Caliper LC3000 workstations for reading. Phosphorylated and unphosphorylated peptides were separated using the Caliper microfluidic mobility shift technology. Briefly, samples from terminated kinase reactions were applied to the chip. Analytes are transported through the chip by constant buffer flow and the migration of the substrate peptide is monitored by the fluorescence signal of its label. Phosphorylated peptide (product) and unphosphorylated peptide (substrate) are separated in an electric field by their charge/mass ratio. Kinase activities were calculated from the amounts of formed phospho-peptide. IC50 values were determined from percent inhibition values at different compound concentrations by non-linear regression analysis.
(§2) In vitro biochemical assays for FGFR1 (407-822), FGFR2 (406-821) and FGFR3 (411-806) were conducted in a similar manner to the in vitro biochemical assay for FGFR4 described above, using the indicated portions of the kinase domains. The following examples all produced IC50 values >10000 nM in the biochemical FGFR1, FGFR2 and FGFR3 assays: 2, 3, 4, 11, 13, 16, 17, 18, 20, 28, 30.

[1] = biological target: BaF3-Tel-FGFR4 cells (TEL fused to cytoplasmic domain of FGFR4) (Homo sapiens, UniProt P22455); test: In vitro cellular kinase assay for FGFR4 (BaF3-Tel-FGFR4, MSD capture ELISA of tyrosine phosphorylation); conditions: 1 hour incubation
Sequence of BaF3-Tel-FGFR4 cells (TEL fused to cytoplasmic domain of FGFR4) (P22455 with tags, fused parts or gaps): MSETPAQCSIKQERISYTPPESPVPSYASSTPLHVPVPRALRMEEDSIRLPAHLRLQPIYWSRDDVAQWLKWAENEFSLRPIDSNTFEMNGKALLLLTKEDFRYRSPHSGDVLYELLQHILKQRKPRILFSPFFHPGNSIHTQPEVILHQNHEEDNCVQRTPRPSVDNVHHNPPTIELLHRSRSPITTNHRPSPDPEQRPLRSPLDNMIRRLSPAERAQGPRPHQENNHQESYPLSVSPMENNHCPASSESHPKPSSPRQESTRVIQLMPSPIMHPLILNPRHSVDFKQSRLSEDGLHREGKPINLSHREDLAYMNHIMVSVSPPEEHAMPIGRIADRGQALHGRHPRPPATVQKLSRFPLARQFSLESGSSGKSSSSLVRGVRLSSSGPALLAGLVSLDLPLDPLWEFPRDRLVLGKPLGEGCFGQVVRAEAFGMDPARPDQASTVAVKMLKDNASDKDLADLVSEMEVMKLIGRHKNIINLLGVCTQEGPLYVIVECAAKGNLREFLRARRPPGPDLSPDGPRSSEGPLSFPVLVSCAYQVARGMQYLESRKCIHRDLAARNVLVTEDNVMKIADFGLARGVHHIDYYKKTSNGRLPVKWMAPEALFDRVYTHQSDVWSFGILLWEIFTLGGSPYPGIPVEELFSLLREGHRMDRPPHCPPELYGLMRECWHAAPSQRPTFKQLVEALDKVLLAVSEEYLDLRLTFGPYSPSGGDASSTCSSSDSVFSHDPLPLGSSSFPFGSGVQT

[2] = test system: HuH-7 hepatocellular carcinoma cells; test: CellTiter Glo (CTG) proliferation/viability assay; type: cell-based; conditions: HuH-7 cells, 3 days, half-maximal growth inhibition (GI50), read-out: HUH7 proliferation CTG
Method: CellTiter Glo (CTG) Assay:
The functional effect of compounds on cell proliferation is assessed using HuH-7 hepatocellular carcinoma cells obtained from the Japanese Collection of Research Bioresources Cell Bank (Cat# JCRB0403) and cultured in the vendor-recommended medium (DMEM high glucose (Amimed Cat#1-26F01-I), 10% foetal calf serum (Invitrogen Cat#16140-071), 1 mM sodium pyruvate (Amimed Cat#5-60F00-H), 1× Penicillin/Streptomycin (Amimed Cat#4-01F00-H)) at 37° C. in a humidified 5% CO2 incubator. Compound-mediated suppression of cell proliferation/viability is assessed by quantification of cellular ATP levels using the CellTiter-Glo (CTG) reagent (Promega, Cat# G7573). Briefly, cells are seeded at 3′000 cells/well/80 μl fresh medium into tissue-culture-treated 96-well plates (Costar Cat#3904), followed by addition of 20 μl medium containing compound dilutions at 5-fold their final intended concentration. Dose-response effects are assessed by 3-fold serial dilutions of the test compound, starting at 10 μM. Following incubation of the cells for 3 days at 37° C. and 5% CO2, the effect of inhibitors on cell viability is quantified following addition of 50 μl CTG and luminescence measurement (integration time: 500 ms) as per vendor manual, using a correspondingly equipped multi-mode plate reader (M200Pro, TECAN, Switzerland). For data analysis, the assay background value determined in wells containing medium, but no cells, is subtracted from all data points. To enable differentiation of cytotoxic from cytostatic compounds, the number of viable cells is assessed relative to that observed at the time of compound addition using a separate cell plate (day 0). The effect of a particular test compound concentration on cell proliferation/viability is expressed as percentage of the background- and day 0-corrected luminescence reading obtained for cells treated with vehicle only (DMSO, 0.1% f.c.), which is set as 100%, whereas the luminescence reading for wells containing medium only, but no cells, is set as −100%. Compound concentrations leading to half-maximal growth inhibition (GI50) are determined using standard four parameter curve fitting (XLfit 5.2., IDBS, UK).

FGFR2 (406-821) = biological target: T2, FGFR2 (406-821) (Homo sapiens, UniProt P21802); test: In vitro biochemical assay for FGFR2
T2 construct: FGFR2 (406-821)
T2 sequence (P21802 406-821): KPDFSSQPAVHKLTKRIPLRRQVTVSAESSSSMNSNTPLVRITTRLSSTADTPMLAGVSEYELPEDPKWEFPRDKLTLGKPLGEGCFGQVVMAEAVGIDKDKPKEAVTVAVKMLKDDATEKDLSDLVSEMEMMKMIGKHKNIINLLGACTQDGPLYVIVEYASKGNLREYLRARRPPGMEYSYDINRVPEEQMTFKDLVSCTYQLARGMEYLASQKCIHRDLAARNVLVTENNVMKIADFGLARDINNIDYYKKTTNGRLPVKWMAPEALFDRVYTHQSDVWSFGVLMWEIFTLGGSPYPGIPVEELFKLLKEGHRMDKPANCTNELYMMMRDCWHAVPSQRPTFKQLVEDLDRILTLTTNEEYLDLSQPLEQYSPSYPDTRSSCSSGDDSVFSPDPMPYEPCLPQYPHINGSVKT
Method: as §1, §2

[3] = biological target: T3, FGFR4 (GST-FGFR4(388-802)) (Homo sapiens, UniProt P22455); test: In-vitro biochemical kinase assay for FGFR4 (Caliper mobility shift); conditions: 60 minutes at 30° C.
T3 construct: GST-FGFR4(388-802); GST (N); made in house; host or cells: insect cells
T3 sequence (P22455 388-802): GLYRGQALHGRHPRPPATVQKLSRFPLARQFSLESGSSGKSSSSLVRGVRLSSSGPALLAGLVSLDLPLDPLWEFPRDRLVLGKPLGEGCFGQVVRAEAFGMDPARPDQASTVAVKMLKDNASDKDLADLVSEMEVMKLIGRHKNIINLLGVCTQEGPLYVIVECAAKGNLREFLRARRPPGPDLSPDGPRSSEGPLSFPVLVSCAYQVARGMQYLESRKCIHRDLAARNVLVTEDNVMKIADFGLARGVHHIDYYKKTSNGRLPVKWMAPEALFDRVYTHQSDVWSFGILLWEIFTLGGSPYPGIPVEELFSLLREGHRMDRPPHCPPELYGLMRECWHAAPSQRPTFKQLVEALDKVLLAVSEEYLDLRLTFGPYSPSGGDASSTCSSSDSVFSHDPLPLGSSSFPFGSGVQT
Method: In-Vitro Biochemical Kinase Assays for FGFR4
All assays were performed in 384 well microtiter plates. Each assay plate contained 8-point serial dilutions for 40 test compounds, as well as four 8-point serial dilutions of staurosporine as reference compound, plus 16 high and 16 low controls.
as §1
Preparation of Compound Dilutions
Test compounds were dissolved in DMSO (10 mM) and transferred into 1.4 mL flat bottom or V-shaped Matrix tubes carrying a unique 2D matrix. The stock solutions were stored at […] if not used immediately. For the test procedure the vials were defrosted and identified by a scanner whereby a working sheet was generated that guided the subsequent working steps.
Compound dilutions were made in 96 well plates. This format enabled the assay of maximally 40 individual test compounds at 8 concentrations (single points) including 4 reference compounds. The dilution protocol included the production of “pre-dilution plates”, “master plates” and “assay plates”.
96 polypropylene well plates were used as pre-dilution plates. A total of 4 pre-dilution plates were prepared including 10 test compounds each on the plate positions A1-A10, one standard compound at A11 and one DMSO control at A12. All dilution steps were done on a HamiltonSTAR robot.
These plates were used directly for the assay which was performed in a total volume of 9.05 μL.

FGFR3 (411-806) = biological target: T4, FGFR3 (411-806) (Homo sapiens, UniProt P22607); test: In vitro biochemical assay for FGFR3
T4 construct: FGFR3 (411-806)
T4 sequence (P22607 411-806): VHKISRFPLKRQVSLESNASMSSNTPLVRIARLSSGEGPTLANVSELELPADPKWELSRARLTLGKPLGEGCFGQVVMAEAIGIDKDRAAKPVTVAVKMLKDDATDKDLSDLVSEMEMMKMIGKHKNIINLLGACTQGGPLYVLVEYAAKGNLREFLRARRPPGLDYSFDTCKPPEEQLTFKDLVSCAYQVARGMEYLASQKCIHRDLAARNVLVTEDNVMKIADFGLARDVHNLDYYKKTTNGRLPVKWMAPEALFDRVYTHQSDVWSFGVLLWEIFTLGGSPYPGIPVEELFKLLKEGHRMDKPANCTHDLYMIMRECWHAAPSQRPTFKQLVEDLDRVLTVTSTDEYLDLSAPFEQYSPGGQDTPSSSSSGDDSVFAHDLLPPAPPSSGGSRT
Method: as §1, §2

[4] = test system: HuH-7 hepatocellular carcinoma cells; test: Methylene blue staining proliferation assay (MBS); type: cell-based; conditions: Homo sapiens, HuH-7 cells, 72 hours, read-out: HUH7 proliferation MBS
Method: Methylene Blue Staining Proliferation Assay (MBS):
The effect of compounds on cell proliferation is assessed using HuH-7 hepatocellular carcinoma cells obtained from the Japanese Collection of Research Bioresources Cell Bank (Cat# JCRB0403) and cultured in the vendor-recommended medium (DMEM high glucose (Amimed Cat#1-26F01-I), 10% foetal calf serum (Invitrogen Cat#16140-071), 1 mM sodium pyruvate (Amimed Cat#5-60F00-H), 1× Penicillin/Streptomycin (Amimed Cat#4-01F00-H)) at 37° C. in a humidified 5% CO2 incubator. […] 72 hours after compound addition, cells were fixed by adding 25 μL/well of 20% glutaraldehyde (Sigma Aldrich Cat# G400-4) and incubated for 10 minutes at room temperature. Cells were washed three times with H2O, 200 μL/well and stained with 100 μL/well 0.05% methylene blue (ABCR GmbH Cat# AB117904) for 10 minutes at room temperature. Cells were washed 3 times with H2O, 200 μL/well and then lysed by adding 200 μL/well of 3% HCl (Fluka Cat#84422) for 30 minutes at room temperature with shaking. Optical density was measured at A650 nm. The concentration of compound providing 50% of proliferation inhibition with respect to DMSO-treated cells was determined (IC50) using XLFit software.

T1 sequence (P11362 407-822): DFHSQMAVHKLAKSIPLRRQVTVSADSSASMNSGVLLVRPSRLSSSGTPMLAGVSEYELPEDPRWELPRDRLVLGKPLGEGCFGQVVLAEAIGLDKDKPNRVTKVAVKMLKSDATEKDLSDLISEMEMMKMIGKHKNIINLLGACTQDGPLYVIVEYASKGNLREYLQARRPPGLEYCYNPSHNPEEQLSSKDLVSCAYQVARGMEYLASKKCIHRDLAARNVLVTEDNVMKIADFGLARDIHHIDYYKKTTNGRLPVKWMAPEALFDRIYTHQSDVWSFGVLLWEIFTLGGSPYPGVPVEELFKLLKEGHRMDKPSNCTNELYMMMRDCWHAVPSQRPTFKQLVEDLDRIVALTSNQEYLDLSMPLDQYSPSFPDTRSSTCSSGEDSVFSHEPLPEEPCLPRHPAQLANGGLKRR

| IC50 (FGFR1 (407-822)) | IC50 [1] | IC50 ([2]; Homo sapiens, Huh-7, 72 h) | IC50 [2] | IC50 (FGFR2 (406-821)) | IC50 [3] | IC50 (FGFR3 (411-806)) | IC50 [4] | Structure (SMILES) |
| --- | --- | --- | --- | --- | --- | --- | --- | --- |
| > 10000 nM | 2640 nM | > 3000 nM | 2660 nM | > 10000 nM | 480 nM | > 10000 nM |  | COCCNc1cc(Nc2ccnn2-c2ccc(-c3cnn(C)c3)c(C=O)n2)ncc1C(F)(F)F [Example 28, 6-(5-((4-((2-methoxyethyl)amino)-5-(trifluoromethyl)pyridin-2-yl)amino)-1H-pyrazol-1-yl)-3-(1-methyl-1H-pyrazol-4-yl)picolinaldehyde] |
| > 10000 nM | 145 nM | 2760 nM |  | > 10000 nM | 29 nM | > 10000 nM |  | CC(C)Oc1cc(NC(=O)N(C)c2ccc(CN3CCN(C)CC3)c(C=O)n2)ncc1C#N [Example 17, 3-(5-cyano-4-isopropoxypyridin-2-yl)-1-(6-formyl-5-((4-methylpiperazin-1-yl)methyl)pyridin-2-yl)-1-methylurea] |
|  | 1270 nM | > 3000 nM |  |  | 1.3 nM |  | > 3000 nM | COCCNc1cc(NC(=O)N(C)c2ccc(C(=O)O)c(C=O)n2)ncc1C#N [Example 9, 6-(3-(5-cyano-4-((2-methoxyethyl)amino)pyridin-2-yl)-1-methylureido)-2-formylnicotinic acid] |
| > 10000 nM | 25 nM | 463 nM |  | > 10000 nM | 1.9 nM | > 10000 nM | 191 nM | CC(C)Oc1cc(NC(=O)N(C)c2ccc(C(F)F)c(C=O)n2)ncc1C#N [Example 18, 3-(5-cyano-4-isopropoxypyridin-2-yl)-1-(5-(difluoromethyl)-6-formylpyridin-2-yl)-1-methylurea] |
| > 10000 nM | 5.3 nM | 100 nM |  | > 10000 nM | 4.3 nM | > 10000 nM |  | COCCNc1cc(NC(=O)N(C)c2ccc(CN3CCCC3=O)c(C=O)n2)ncc1C#N [Example 20, 3-(5-cyano-4-((2-methoxyethyl)amino)pyridin-2-yl)-1-(6-formyl-5-((2-oxopyrrolidin-1-yl)methyl)pyridin-2-yl)-1-methylurea] |
| > 10000 nM | 7.7 nM | 90 nM |  | > 10000 nM | 2.7 nM | > 10000 nM | 51 nM | COCCNc1cc(NC(=O)N(C)c2ccc(C(F)F)c(C=O)n2)ncc1C#N [Example 16, 3-(5-cyano-4-((2-methoxyethyl)amino)pyridin-2-yl)-1-(5-(difluoromethyl)-6-formylpyridin-2-yl)-1-methylurea] |

Continued, molecule first:

| Structure (SMILES) | IC50 (FGFR1 (407-822)) | IC50 [1] | IC50 ([2]; Homo sapiens, Huh-7, 72 h) | IC50 [2] | IC50 (FGFR2 (406-821)) | IC50 [3] | IC50 (FGFR3 (411-806)) | IC50 [4] |
| --- | --- | --- | --- | --- | --- | --- | --- | --- |
| COCCNc1cc(NC(=O)N(C)c2ccc(CN(C)C(C)=O)c(C=O)n2)ncc1C#N [Example 15, N-((6-(3-(5-cyano-4-((2-methoxyethyl)amino)pyridin-2-yl)-1-methylureido)-2-formylpyridin-3-yl)methyl)-N-methylacetamide] |  | 4.8 nM | 106 nM |  |  |  |  | 25 nM |
| CCN(C(=O)Nc1cc(NCCOC)c(C#N)cn1)c1ccc(-c2cnn(C)c2)c(C=O)n1 [Example 10, 3-(5-cyano-4-((2-methoxyethyl)amino)pyridin-2-yl)-1-ethyl-1-(6-formyl-5-(1-methyl-1H-pyrazol-4-yl)pyridin-2-yl)urea] |  | 13 nM |  |  |  | 10 nM |  | 1090 nM |
| CC(C)Oc1cc(NC(=O)Nc2nccc(C=O)n2)ncc1C#N [Example 30, 1-(5-cyano-4-isopropoxypyridin-2-yl)-3-(4-formylpyrimidin-2-yl)urea] | > 10000 nM | 982 nM | > 3000 nM |  | > 10000 nM | 100 nM | > 10000 nM |  |
| COCCNc1cc(NC(=O)N(C)c2ccc(-c3cnn(C)c3)c(C=O)n2)ncc1C#N [Example 13, 3-(5-cyano-4-((2-methoxyethyl)amino)pyridin-2-yl)-1-methyl-1-(6-formyl-5-(1-methyl-1H-pyrazol-4-yl)pyridin-2-yl)urea] | > 10000 nM | 53 nM | 664 nM |  | > 10000 nM | 5.8 nM | > 10000 nM |  |

Source: patent US10189813B2, “Formylated N-heterocyclic derivatives as FGFR4 inhibitors” (NOVARTIS AG, priority 2015, dated 2019)
